Source: patent publication US6699879B1, “Phenyl urea and phenyl thiourea derivatives as orexin receptor antagonists” (SmithKline Beecham p.l.c., priority 1999, dated 2004)
No end group written: not given here.

Tests used:
orexin receptors = test: Rat sleep/EEG studies, central administration; assay type: in vivo; settings: central administration at the onset of the normal sleep period; largely at the expense of paradoxical sleep and slow wave sleep 2
Excerpt: Therefore antagonists of its receptor may be useful in the treatment of sleep disorders including insomnia.

freely-feeding rats = settings: central administration, 4 hour time period; cited from earlier work

Substance: orexin-A: ligand for the orexin-1 receptor, an agonist of the orexin receptors; 33-residue peptide, sequence in the 1st table (QPLPDCCRQKTCSCRLYELLHGAGNHAAGILTL-NH2; not fully specified (residue 1, bridges); ends and bridges not checked; UniProt O43612 34-66, looked up)
- effect on arousal (orexin receptors): dose-related increase in arousal
- increase in food intake over control rats receiving vehicle (freely-feeding rats): approximately four-fold
